Experimental data published in patent US10189887B2, “Polypeptides and uses thereof for reducing CD95-mediated cell motility” (INSERM (INSTITUT NATIONAL DE LA SANTÉ ET DE LA RECHERCHE …, priority 2014, dated 2019).

Tests used:
[1] = tested on: PLCγ1-dependent Ca^2+ response to TCR stimulation; test: Ca^2+ response to TCR stimulation (selectivity); assay type: cell-based; details: TAT-CID pretreatment
Method: (§1) T cells were loaded with Fura-PE3-AM (1 μM) at room temperature for 30 min in Hank's Balanced Salt Solution (HBSS). After washing, the cells were incubated for 15 min in the absence of Fura-PE3-AM to complete de-esterification of the dye. Cells were placed in the temperature controlled chamber (37° C.) of an inverted epifluorescence microscope (Olympus IX70) equipped with an ×40 UApo/340-1.15 W water-immersion objective (Olympus), and fluorescence micrograph images were captured at 510 nm and 12-bit resolution by a fast-scan camera (CoolSNAP fx Monochrome, Photometrics). To minimize UV light exposure, a 4×4 binning function was used. Fura-PE3 was alternately excited at 340 and 380 nm, and the ratios of the resulting images (emission filter at 520 nm) were produced at constant intervals (10 seconds). The Fura-PE3 ratio (Fratio 340/380) images were analyzed offline with Universal Imaging software, including Metafluor and Metamorph. Fratio reflects the intracellular Ca^2+ concentration changes. Each experiment was repeated 3 times, and the average of more than 20 single-cell traces was analyzed.

murin CD95 = test: Calcium response in mouse CD95-expressing CEM-IRC cells; assay type: cell-based; details: CEM-IRC cells reconstituted with wild type mouse CD95
Th17 cell accumulation = test: In vivo administration of cl-CD95L: cell accumulation in peritoneal cavity and spleen; set-up: species or system C57BL/6 mice; details: 24 hours later
Method: Female C57BL/6 mice (Harlan UK) aged between 8-10 weeks were placed in groups of 6 and administered IP. Twenty-four hours following injection, mice were sacrificed and periteonial cavities were washed with 5 ml of PBS/2% FCS, blood smears were prepared, and spleens were collected. Blood smears and cytospins of periteonal cells (PECs) were stained with Giemsa and differential counts performed. Single cell suspensions of spleens and PECs were prepared, cell counts performed, CD4+CD62− T-cells were isolated with Miltenyi microbeads and number of cells determined by trypan blue exclusion. For experiments where animals received TAT-mCID or control peptides, 800 μg (40 mg/kg) was injected IP 2 hrs prior to administration of cl-CD95L. All mouse experiments were performed under ethical approval from the University of Nottingham local animal ethics committee and adhering to UK Home Office guidelines under the Project License 40/3412.
Single cell suspensions of spleens and PECs were prepared as described above. RNA was extracted from CD4 T-cells using phenol/chloroform. cDNA was prepared using the Promega GO-Script Reverse Transcription Kit and used in Real-Time PCR. Briefly, cDNA samples were subject to Taqman assay performed on a Roche Lightcycler. Results are reported as expression levels were calculated using the Δct method relative to HPRT.

[2] = tested on: CD95-mediated Ca^2+ response; test: Calcium response to cl-CD95L in activated PBL; assay type: cell-based, human; details: activated PBL pre-incubated 1 hr, 10 μM peptide, 100 ng/ml cl-CD95L
Method: (§2) Cells were loaded with Fura2-AM (1 μM) at resting temperature for 30 min in Hank's Balanced Salt Solution (HBSS). After washing with HBSS, the cells were incubated for 15 min in the absence of Fura2-AM to complete de-esterification of the dye. Cells were placed in a thermostated chamber (37° C.) of an inverted epifluorescence microscope (Olympus IX70) equipped with a ×40, UApo/340-1.15 W water-immersion objective (Olympus), and fluorescence micrograph images were captured at 510 nm and at 12-bit resolution by a fast-scan camera (CoolSNAP fx Monochrome, Photometrics). To minimize UV light exposure, 4×4 binning function was used. Fura2-AM was alternately excited at 340 and 380 nm, and ratios of the resulting images (excitations at 340 and 380 nm and emission filter at 520 nm) were produced at constant intervals (5 s or 10 s according to the stimulus). […] Fluorescent images were pseudocolored using the IMD display mode in MetaFluor and assembled without further manipulation in Photoshop (Adobe). Raw data were acquired with MetaFluor and graphed in Origin (OriginLab). [Ca^2+]i was calculated using the following equation: [Ca^2+]i=Kd(R−Rmin)/(R−Rmax)×Sf2/Sf1, where Kd is the Fura2-AM dissociation constant at the two excitation wavelengths (F340/F380); Rmin is the fluorescence ratio in the presence of minimal calcium, obtained by chelating Ca^2+ with 10 mM EGTA; Rmax is the fluorescence ratio in the presence of excess calcium, obtained by treating cells with 1 μM ionomycin; Sf2 is the fluorescence of the Ca^2+-free form; and Sf1 is the fluorescence of the Ca^2+-bound form of Fura2-AM at excitation wavelengths of 380 and 340 nm, respectively. In some experiments cells were placed in a Ca^2+-free medium consisting of the HBSS described above in which CaCl2 was omitted and 100 μM EGTA was added in order to chelate residual Ca^2+ ions. This medium was added to the cells just before recording to avoid leak of the intracellular calcium stores.
All cells were purchased from ATCC (Molsheim Cedex, France). T leukemic cell lines CEM, H9 and Jurkat were cultured in RPMI supplemented with 8% heat-inactivated FCS (v/v) and 2 mM L-glutamine at 37° C. in a 5% CO2 incubator. CEM-IRC cell expressing a low amount of plasma membrane CD95 was described in (Beneteau et al., 2007; Beneteau et al., 2008). […]
T cells were loaded with Fura-PE3-AM (1 μM) at room temperature for 30 min in Hank's Balanced Salt Solution (HBSS). […] Cells were placed in the temperature controlled chamber (37° C.) of an inverted epifluorescence microscope (Olympus IX70) equipped with an ×40 UApo/340-1.15 W water-immersion objective (Olympus), and fluorescence micrograph images were captured at 510 nm and 12-bit resolution by a fast-scan camera (CoolSNAP fx Monochrome, Photometrics). […]

[3] = tested on: CD95-mediated Ca^2+ response; test: Calcium response to cl-CD95L in Jurkat cells (Fura2/FuraPE3 video imaging); assay type: cell-based; details: Jurkat pre-incubated 1 hr, 10 μM peptide, 100 ng/ml cl-CD95L
Method: as §2, §1

## TAT-CID: cell penetrating peptide linking the 36-amino acid-stretch of CID (CD95 residues 175 to 210) to the HIV-TAT sequence; SEQ ID NO: 6 (RKKRRQRRRKRKEVQKTCRKHRKENQGSHESPTLNPETVAINLSD; TAT-CID)
[1]
  PLCγ1-dependent Ca^2+ response to TCR stimulation: did not alter this signal
Murin CD95
  CD95-mediated Ca^2+ response: failed to inhibit the CD95-mediated Ca^2+ response
Th17 cell accumulation; 40 mg/kg two hours prior to IP cl-CD95L (200 ng)
  total cell counts from the PEC (accumulation of T lymphocytes): abolished the CD95-mediated accumulation of T lymphocytes
Th17 cell accumulation; 40 mg/kg two hours prior to IP cl-CD95L (200 ng), ELISA
  IL17 production in the peritoneal cavity: prevented
Th17 cell accumulation; 40 mg/kg two hours prior to IP cl-CD95L
  levels of IFN-γ versus control peptide: no differences were noted
[2]
  calcium response to cl-CD95L: abrogated the CD95-mediated Ca^2+ response
[2]; listed as TAT CID 175-210
  calcium response to cl-CD95L: greatly reduced the calcium response
[3]
  calcium response to cl-CD95L: abolished the induction of the CD95-mediated Ca^2+ signal
[3]; listed as TAT CID 175-210
  calcium response to cl-CD95L: greatly reduced the calcium response
